The text below walks through data of US11090267B2, “Rapidly degrading embolic particles with therapeutic agent release” (priority 2014, dated 2021).

The nature of this data set: incubation in water at 37° C., crystal form conversion (micrographs). Type of data set: physicochemical.

Regarding `CC(=O)O[C@H]1C(=O)[C@@]2(C)[C@H]([C@H](OC(=O)c3ccccc3)[C@]3(O)C[C@H](OC(=O)[C@H](O)[C@@H](NC(=O)c4ccccc4)c4ccccc4)C(C)=C1C3(C)C)[C@]1(OC(C)=O)CO[C@@H]1C[C@@H]2O` [crystalline anhydrous paclitaxel, paclitaxel], the “conversion to dihydrate crystals upon incubation in water” value (as-received powder dispersed in water at 37° C., FIGS. 5 and 6) is given as “coalesce within hours to large needle-like dihydrate crystals”.
Turning to `CC(=O)O[C@H]1C(=O)[C@@]2(C)[C@H]([C@H](OC(=O)c3ccccc3)[C@]3(O)C[C@H](OC(=O)[C@H](O)[C@@H](NC(=O)c4ccccc4)c4ccccc4)C(C)=C1C3(C)C)[C@]1(OC(C)=O)CO[C@@H]1C[C@@H]2O` [amorphous paclitaxel, paclitaxel], for the setting “amorphous paclitaxel microparticles dispersed in PLGA matrix, water at 37C, FIG. 4”, the “conversion to dihydrate crystals upon incubation in water” value is reported as “coalesce within hours into large, needle-like dihydrate crystals”.
